Results taken from patent publication US20250289789A1, “REVERSIBLE LYSINE COVALENT MODIFIERS OF CDK2 AND USES THEREOF” (Terremoto Biosciences, Inc., priority 2023, published 2025).
“And” between values parts separate entries of the source, which are not always exact repeats. Equal values may be shown once. Read-outs that look alike come from different tables or passages of the source.

Experiments:
[1] = system: Phospho-Rb Ser807/811 in OVCAR3 cells; test: OVCAR3 Phospho-Rb Ser807/811 HTRF assay; type: cell-based; details: Homo sapiens, OVCAR-3, 1 h, read-out: pRb-OVCAR3 IC50
Description: Cells were trypsinized and resuspended in 1 mM hydroxyurea (Sigma; H8627), 90% RPMI and 10% fetal bovine serum. […] Dose response curve normalized to DMSO control was plotted using four-parameter logistic model for IC50 calculation.

[2] = biological target: T1, CDK2-NanoLuc fusion with CCNE1 in 293T or 293 cells (Homo sapiens, UniProt P24941); test: NanoBRET Target Engagement (TE) Intracellular Kinase Assay, CDK2/CCNE1; type: cell-based; details: 2-hour incubation
T1 construct: host or cells: 293T (ATCC CRL-3216) or 293 (ATCC CRL-1573)

[3] = biological target: T2, CDK4-NanoLuc fusion with CCND1 in 293T or 293 cells (Homo sapiens, UniProt P11802); test: NanoBRET Target Engagement (TE) Intracellular Kinase Assay, CDK4/CCND1; type: cell-based; details: NanoBRET TE intracellular kinase assay, 2-hour incubation, read-out: NanoBRET-CDK4/D1 IC50
T2 construct: host or cells: 293T (ATCC CRL-3216) or 293 (ATCC CRL-1573)
T2 sequence (P11802 whole entry, the tested form may be a part): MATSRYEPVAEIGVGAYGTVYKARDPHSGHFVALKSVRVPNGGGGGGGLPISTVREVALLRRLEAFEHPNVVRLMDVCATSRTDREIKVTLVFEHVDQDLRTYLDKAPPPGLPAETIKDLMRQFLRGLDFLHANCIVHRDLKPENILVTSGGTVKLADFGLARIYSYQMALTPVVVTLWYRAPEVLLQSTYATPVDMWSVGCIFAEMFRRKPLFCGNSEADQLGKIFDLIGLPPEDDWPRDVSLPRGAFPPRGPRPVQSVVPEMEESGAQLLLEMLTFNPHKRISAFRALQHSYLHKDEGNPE
T2 sequence (P24385 whole entry partner, the tested form may be a part): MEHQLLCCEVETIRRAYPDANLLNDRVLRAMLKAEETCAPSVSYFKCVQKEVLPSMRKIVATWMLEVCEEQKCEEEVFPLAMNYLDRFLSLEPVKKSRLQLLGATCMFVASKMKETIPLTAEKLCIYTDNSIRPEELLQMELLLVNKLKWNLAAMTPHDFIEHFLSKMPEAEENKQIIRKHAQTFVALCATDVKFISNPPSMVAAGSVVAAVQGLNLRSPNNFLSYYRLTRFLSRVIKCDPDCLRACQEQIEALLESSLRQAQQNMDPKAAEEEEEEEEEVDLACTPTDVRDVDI

[4] = biological target: T3, CDK1-NanoLuc fusion with CCNB1 in 293T or 293 cells (Homo sapiens, UniProt P06493); test: NanoBRET Target Engagement (TE) Intracellular Kinase Assay, CDK1/CCNB1; type: cell-based; details: NanoBRET TE intracellular kinase assay, 2-hour incubation, read-out: NanoBRET-CDK1/B1 IC50
T3 construct: host or cells: 293T (ATCC CRL-3216) or 293 (ATCC CRL-1573)
T3 sequence (P06493 whole entry, the tested form may be a part): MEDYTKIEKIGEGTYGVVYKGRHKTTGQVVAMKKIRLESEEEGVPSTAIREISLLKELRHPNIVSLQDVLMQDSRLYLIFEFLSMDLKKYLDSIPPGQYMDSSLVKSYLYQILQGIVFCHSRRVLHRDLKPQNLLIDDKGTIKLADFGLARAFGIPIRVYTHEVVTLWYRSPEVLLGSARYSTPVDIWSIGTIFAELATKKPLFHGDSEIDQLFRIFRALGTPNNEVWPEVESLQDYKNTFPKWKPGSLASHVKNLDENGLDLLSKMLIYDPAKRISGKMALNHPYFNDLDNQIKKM
T3 sequence (P14635 whole entry partner, the tested form may be a part): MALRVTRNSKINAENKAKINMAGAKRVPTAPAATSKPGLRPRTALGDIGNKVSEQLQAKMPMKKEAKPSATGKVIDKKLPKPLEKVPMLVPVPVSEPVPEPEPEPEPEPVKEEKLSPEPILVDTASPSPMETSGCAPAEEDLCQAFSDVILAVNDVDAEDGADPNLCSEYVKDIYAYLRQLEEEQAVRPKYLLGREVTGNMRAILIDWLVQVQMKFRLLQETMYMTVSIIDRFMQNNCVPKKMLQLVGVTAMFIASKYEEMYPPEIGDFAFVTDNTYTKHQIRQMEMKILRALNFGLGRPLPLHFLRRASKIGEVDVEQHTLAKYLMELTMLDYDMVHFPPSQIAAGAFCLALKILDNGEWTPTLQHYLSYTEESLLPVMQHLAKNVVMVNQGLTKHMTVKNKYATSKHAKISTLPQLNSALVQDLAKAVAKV
How it was run: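 IC50 derived by four-parameter logistic fit of DMSO-normalized acceptor/donor (610/450 nm) BRET ratio. Compound and Tracer K-10 were applied together for 2 h at 37° C to 293 or 293T cells transfected 24 h earlier with CDK1-NanoLuc fusion and cyclin B1.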

[5] = biological target: pCDK2-CCNE1 proteins (Homo sapiens, UniProt P24941); test: Identification of covalent binding by intact mass spectrometry, with and without competitor PF-06873600; details: for Observed mass value of the covalent complex between compound and CDK2 protein: intact mass spectrometry after borohydride reduction, unmodified CDK2 34096-34097 Da; for Covalent complex formation with CDK2 protein (intact mass spectra after sodium borohydride reduction) / Binding pocket by competition: complex formation in presence of molar excess PF-06873600: pCDK2-CCNE1 1 μM, compound 1.5 μM; for Covalent complex formation with CDK2 protein (intact mass spectra after sodium borohydride reduction): 1 hour at room temperature or 37° C., no competitor; for Binding pocket by competition: complex formation in presence of molar excess PF-06873600: competitor PF-06873600 20 μM
Description: pCDK2-CCNE1 proteins (1 μM) were treated with a compound (1.5 μM) from Table 4 for 1 hour at room temperature or 37° C., with and without competitor molecule PF-06873600 (20 μM final concentration) as a specificity control. As used herein, the competitor molecule is
As used herein, the competitor molecule is 6-(difluoromethyl)-8-((1R,2R)-2-hydroxy-2-methylcyclopentyl)-2-((1-(methylsulfonyl)piperidin-4-yl)amino)pyrido[2,3-d]pyrimidin-7(8H)-one (PF-06873600). Reversible imines were captured by reductive amination with the addition of 5 mM sodium borohydride at room temperature for 5 min. Reduction reactions were quenched by diluting the sample in equal volume of 1% trifluoroacetic acid (v/v) in acetonitrile, then analyzed by LC-MS. Deconvoluted monoisotopic intensities of unmodified and compound-modified mass peaks were compared.
FIGS. 1A to 1P provide intact mass spectra for pCDK2-CCNE1 proteins after incubation with compounds of the present disclosure and subsequent sodium borohydride reduction. […] Further, FIGS. 1A to 1P each provide intact mass spectra following the incubation of pCDK2-CCNE1 proteins with a compound of the present disclosure both in the absence of a competitor molecule (i.e., PF-06873600, a molecule known to bind to and inhibit the function of CDK2); and in the presence of a significant stoichiometric excess of a competitor molecule PF-06873600.
FIGS. 2A to 2N provide intact mass spectra for pCDK2-CCNE1 proteins after incubation with compounds of the present disclosure and subsequent sodium borohydride reduction.

[6] = OVCAR3 cells, Phospho-Rb Ser807/811 HTRF, 1 hour incubation
[7] = NanoBRET TE intracellular kinase assay, read-out: NanoBRET-CDK2/E1 IC50

Row | IC50 [1, 6] [nM] | IC50 [2, 7] [nM] | IC50 [3] [nM] | IC50 [4] [nM] | Observed mass value of the covalent complex between compound and CDK2 protein ([5]; 2,2,2-trifluoroacetate) | Covalent complex formation with CDK2 protein (intact mass spectra after sodium borohydride reduction) [5] | Observed mass value of the covalent complex between compound and CDK2 protein [5] [Da] | Structure (SMILES) | Binding pocket by competition: complex formation in presence of molar excess PF-06873600 [5] | IC50 [1] [nM] | IC50 ([2]; NanoBRET-CDK2/E1 IC50, NanoBRET TE intracellular kinase assay) [nM]
1 | 382 | 8.63 | > 10000 | 49.7 | – | resulted in covalent complex formation | – | CNC(=O)O[C@@H]1CC[C@H](c2cc(NC(=O)c3cc(-c4cccc(O)c4C=O)nn3C)n[nH]2)C1 [Compound 50, (1R,3S)-3-{5-[5-(2-formyl-3-hydroxyphenyl)-2-methylpyrazole-3-amido]-2H-pyrazol-3-yl}cyclopentyl N-methylcarbamate; trifluoroacetic acid] | – | – | –
2 | 2430 | 21.7 | 543 | 383 | – | resulted in covalent complex formation | – | C#Cc1cccc(-c2cc(C(=O)Nc3cc([C@H]4CC[C@@H](OC(=O)NC(C)C)C4)[nH]n3)n(C)n2)c1C=O [Compound 52, (1R,3S)-3-(3-(3-(3-ethynyl-2-formylphenyl)-1-methyl-1H-pyrazole-5-carboxamido)-1H-pyrazol-5-yl)cyclopentyl isopropylcarbamate] | – | – | –
3 | 4640 | 11.4 | 1610 | 703 | – | resulted in covalent complex formation | – | CC(C)NC(=O)O[C@@H]1CC[C@H](c2cc(NC(=O)c3cc(-c4cccc(C=O)c4O)nn3C)n[nH]2)C1 [Compound 18, (1R,3S)-3-{5-[5-(3-formyl-2-hydroxyphenyl)-2-methylpyrazole-3-amido]-2H-pyrazol-3-yl}cyclopentyl N-isopropylcarbamate trifluoroacetic acid] | – | – | –
4 | – | 10.9 | 969 | 125 | – | resulted in covalent complex formation | – | CC1(NC(=O)O[C@@H]2CC[C@H](c3cc(NC(=O)CCc4cccc(O)c4C=O)n[nH]3)C2)CC1 [Compound 23, (1R,3S)-3-(3-(3-(2-formyl-3-hydroxyphenyl)propanamido)-1H-pyrazol-5-yl)cyclopentyl (1-methylcyclopropyl)carbamate trifluoroacetic acid] | – | – | –
5 | 33.2 | 2.76 | > 6430 | 9.52 | – | resulted in covalent complex formation | 34539 | COc1cc(O)c(C=O)c(OCC(=O)Nc2cc([C@H]3CC[C@@H](OC(=O)NC(C)C)C3)[nH]n2)c1 [Compound 64, (1R,3S)-3-{5-[2-(2-formyl-3-hydroxy-5-methoxyphenoxy)acetamido]-2H-pyrazol-3-yl}cyclopentyl N-isopropylcarbamate] | – | – | –
6 | 361 | 11.3 | 361 | 71.6 | – | resulted in covalent complex formation | – | CC(C)NC(=O)O[C@@H]1CC[C@H](c2cc(NC(=O)Nc3ccc(O)c(C=O)c3)n[nH]2)C1 [Compound 33, (1R,3S)-3-(5-{[(3-formyl-4-hydroxyphenyl)carbamoyl]amino}-2H-pyrazol-3-yl)cyclopentyl N-isopropylcarbamate] | – | – | –
7 | 2410 | 20.6 | 4170 | 692 | – | resulted in covalent complex formation | – | CC(=O)Nc1cccc(OCC(=O)Nc2cc([C@H]3CC[C@@H](OC(=O)NC(C)C)C3)[nH]n2)c1C=O [Compound 46, (1R,3S)-3-{5-[2-(3-acetamido-2-formylphenoxy)acetamido]-2H-pyrazol-3-yl}cyclopentyl N-isopropylcarbamate] | – | – | –
8 | – | 138 | 779 | 1690 | – | resulted in covalent complex formation | – | CC(C)c1ccc(O[C@@H]2CC[C@H](c3cc(NC(=O)CCc4cccc(O)c4C=O)n[nH]3)C2)nn1 [Compound 14, 3-(2-formyl-3-hydroxyphenyl)-N-{5-[(1S,3R)-3-[(6-isopropylpyridazin-3-yl)oxy]cyclopentyl]-1H-pyrazol-3-yl}propanamide] | – | – | –
9 | 43.2 | 3.32 | 4420 | 11.3 | – | resulted in covalent complex formation | 34523 | CC1(NC(=O)O[C@@H]2CC[C@H](c3cc(NC(=O)COc4cccc(O)c4C=O)n[nH]3)C2)CC1 [Compound 82, (1R,3S)-3-{5-[2-(2-formyl-3-hydroxyphenoxy)acetamido]-2H-pyrazol-3-yl}cyclopentyl N-(1-methylcyclopropyl)carbamate; trifluoroacetic acid] | – | – | –

Row | Structure (SMILES) | IC50 [1, 6] [nM] | IC50 [2, 7] [nM] | IC50 [3] [nM] | IC50 [4] [nM] | Observed mass value of the covalent complex between compound and CDK2 protein ([5]; 2,2,2-trifluoroacetate) | Covalent complex formation with CDK2 protein (intact mass spectra after sodium borohydride reduction) [5] | Observed mass value of the covalent complex between compound and CDK2 protein [5] [Da] | Binding pocket by competition: complex formation in presence of molar excess PF-06873600 [5] | IC50 [1] [nM] | IC50 ([2]; NanoBRET-CDK2/E1 IC50, NanoBRET TE intracellular kinase assay) [nM]
10 | COc1cc(O)c(C=O)c(CCC(=O)Nc2cc([C@H]3CC[C@@H](OC(=O)NC(C)C)C3)[nH]n2)c1 [Compound 22, (1R,3S)-3-(3-(3-(2-formyl-3-hydroxy-5-methoxyphenyl)propanamido)-1H-pyrazol-5-yl)cyclopentyl isopropylcarbamate 2,2,2-trifluoroacetate] | 200 | 4.81 | 3690 | 100 | 34538-34539 Da and 34539 Da | formed a covalent complex with CDK2 protein | – | bound to the same binding pocket of CDK2 as the competitor molecule PF-06873600 | – | –
11 | C#Cc1cccc(OCC(=O)Nc2cc([C@H]3CC[C@@H](OC(=O)NC(C)C)C3)[nH]n2)c1C=O [Compound 51, (1R,3S)-3-(3-(2-(3-ethynyl-2-formylphenoxy)acetamido)-1H-pyrazol-5-yl)cyclopentyl isopropylcarbamate] | 1150 | 7.58 | 4100 | 354 | – | formed a covalent complex with CDK2 protein | 34519 | bound to the same binding pocket of CDK2 as the competitor molecule PF-06873600 | – | –
12 | CC(C)NC(=O)O[C@@H]1CC[C@H](c2cc(NC(=O)Cc3cnn(-c4cccc(O)c4C=O)c3)n[nH]2)C1 [Compound 16, (1R,3S)-3-(5-{2-[1-(2-formyl-3-hydroxyphenyl)pyrazol-4-yl]acetamido}-2H-pyrazol-3-yl)cyclopentyl N-isopropylcarbamate; trifluoroacetic acid] | – | – | 626 | 75.9 | – | formed a covalent complex with CDK2 protein | 34561 | bound to the same binding pocket of CDK2 as the competitor molecule PF-06873600 | 585 | 34.3
